Measurements taken from the supplement of paper PMC6470124.

Experiments:
[1] = absolute recovery over mixed-bed multilayer solid-phase extraction; higher = better recovery; conditions: enrichment method: SPE
Procedure, shortened: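 Elution from a three-layer mixed-bed cartridge used basic followed by acidic ethyl acetate/methanol, after loading either 1000 mL of unfiltered nanopure water or 100–250 mL of wastewater that had been set to pH 6.5 and glass-fibre filtered. Standards went in before or after extraction, or were left out, at 200 ng/L (water) or 1000 ng/L (wastewater), with class exceptions. Internal standards were added afterwards, and measurement was by liquid chromatography with high-resolution tandem mass spectrometry in both ionisation modes. For absolute recovery, background-corrected response ratios of pre-spiked samples were compared with those of post-spiked samples and averaged over at least two replicates.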

[2] = absolute recovery over vacuum-assisted evaporative concentration; higher = better recovery; conditions: enrichment method: VEC
Procedure, shortened: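 Samples of influent (6 mL), effluent (15 mL) and surface or nanopure water (60 mL) were spiked with standards before or after concentration, or left unspiked, at 200 ng/L (nanopure/surface) or 1000 ng/L (wastewater), adjusted by class and compound. Concentration was by evaporation at 55 °C and 20 mbar to about 0.3 mL, followed by adjustment to 0.4 mL and centrifugation. Internal standards were then added for LC-HRMS/MS analysis. Absolute recovery was (response ratio pre − unspiked)/(post − unspiked) × 100, using averages of ≥ 2 replicates.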

[3] = LC retention time (Atlantis T3, 5-95% MeOH gradient, 0.1% formic acid); higher = more retained / less polar
Procedure, shortened: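 Retention times refer to reference standards measured by liquid chromatography with high-resolution tandem mass spectrometry. Separation was on an Atlantis T3 C18 column (3 × 150 mm, 3 μm) at 0.3 mL/min with a 5 to 95% methanol gradient over 17.5 min, both solvents carrying 0.1% formic acid. Positive and negative electrospray were run separately on a QExactive Plus, and TraceFinder peak integration (5 ppm tolerance, at least three points per peak) was reviewed by hand.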

SMILES | absolute recovery ([1]; nanopure water) [%] | absolute recovery ([1]; surface water) [%] | absolute recovery ([1]; wastewater effluent) [%] | absolute recovery ([1]; wastewater influent) [%] | absolute recovery ([2]; wastewater effluent) [%] | absolute recovery ([2]; wastewater influent) [%] | LC retention time [3] [min]
CON=C(C(=O)OC)c1ccccc1COc1ccccc1C [Kresoxim-methyl] | 103 | 110 | 103 | 93.5 | 98.9 | 89.9 | 20.7
COCC(=O)N(c1c(C)cccc1C)C(C)C(=O)OC (centres undefined) [Metalaxyl] | 96.6 | 95.8 | 93.6 | 94.7 | 103 | 97.8 | 18.4
CC(=O)C1CCC2C3CCC4=CC(=O)CCC4(C)C3CCC12C (centres undefined) [Progesteron] | 92.4 | 97.3 | 94.7 | 95.7 | 93.9 | 6.6 | 21.4
N#CC1CCCN1C(=O)C[NH2+]C12CC3CC(CC(O)(C3)C1)C2 (centres undefined) [Vildagliptin] | 92.8 | 94.1 | 92.8 | 93.2 | 105 | 102 | 8.73
NS(=O)(=O)c1cc(C(=O)[O-])c(NCc2ccco2)cc1Cl [Furosemid] | 77.3 |  | 78.8 | 87.3 | 101 | 97.9 | 16.2
CN(C(=O)CO)c1c(I)c(C(=O)NCC(O)CO)c(I)c(C(=O)NCC(O)CO)c1I (centres undefined) [Iomeprol] | 73.5 | 67.8 | 66.5 | 52.4 | 109 | 108 | 8.92
Nc1ccc(S(=O)(=O)[N-]c2ccccn2)cc1 [Sulfapyridin] | 98.5 | 93.6 | 88.1 | 96.2 | 103 | 95.5 | 10.7
CN(C)C(=O)Nc1ccc(Cl)cc1 [Monuron] | 99.5 |  | 94.3 | 90.3 | 103 | 106 | 16.9
CC1(C(=O)[O-])CCC2(C)CCC3(C)C(=CC(=O)C4C5(C)CCC(O)C(C)(C)C5CCC43C)C2C1 (stereo not drawn) [18-beta-Glycyrrhetinic-acid] | 90.6 | 103 | 84.8 | 90.8 | 88.9 | 27.7 | 24.5
Cc1cccc(C)c1N(Cn1cccn1)C(=O)C(=O)[O-] [Metazachlor-OXA] | 95.6 | 97.5 | 92.4 | 87.4 | 108 | 103 | 17.1
C[N+]1([O-])CCN2c3ccccc3Cc3ccccc3C2C1 (centres undefined) [Mianserin-N-Oxide] | 93.7 | 103 |  | 81.2 | 100 | 105 | 15.1
Cc1cc(Cl)ccc1OCC(=O)[O-] [MCPA] | 96.1 | 92.9 | 92.7 | 94.2 | 102 | 103 | 19.3
O=C([O-])c1cc(Oc2ccc(Cl)cc2Cl)ccc1[N+](=O)[O-] [Bifenox-acid] | 75.6 | 63.6 | 77 | 124 | 104 | 108 | 23.4
Cc1cncc(C(=O)[O-])c1 [5-Methylpyridine-3-carboxylic-acid] | 109 | 34.2 | 90.9 | 100 | 94.9 | 141 | 6.89
O=C([O-])c1ccccc1Nc1cccc(C(F)(F)F)c1 [Flufenamic-Acid] | 130 | 106 | 87.9 |  | 101 | 103 | 21.6
CCOP(=O)(OCC)OCC [Triethylphosphat] | 76.6 | 87.7 | 81.5 |  | 83.5 | 79.6 | 15.9
CC(CN1c2ccccc2CCc2ccccc21)C[NH+](C)C (centres undefined) [Trimipramin] | 89.9 | 102 | 95.3 | 54.3 | 101 | 104 | 16.2
CNC(=O)ON=C(C)SC [Methomyl] | 82.7 | 77.3 | 79 | 79.3 | 98.3 | 110 | 11.9
COc1ccc2c(c1)C13CCCCC1C(C2)[NH+](C)CC3 (centres undefined) [Dextromethorphan] | 86.8 | 94.5 | 93.4 | 77.6 | 102 | 107 | 14.5
CC(=O)OCC(=O)C1(O)C(C)CC2C3CCC4=CC(=O)C=CC4(C)C3(F)C(O)CC21C (centres undefined) [Betamethasone 21-acetate C] | 93.1 | 89.4 | 89 | 98.3 | 92.7 | 85.2 | 19.6
Cc1cccc(C)c1N(Cn1cccn1)C(=O)CS(=O)(=O)[O-] [Metazachlor-ESA] | 98.7 | 95.6 | 96.8 | 97.6 | 102 | 104 | 17.5
C[NH2+]CCC(Oc1ccc(C(F)(F)F)cc1)c1ccccc1 (centres undefined) [Fluoxetin] | 79.8 | 90.2 | 85.5 | 82.8 | 91.1 | 91.9 | 16.2
C[NH+](C)CCOC(C)(c1ccccc1)c1ccccn1 (centres undefined) [Doxylamine] | 84.3 | 91.3 | 94.8 | 85 | 120 | 109 | 10.8
CC(=O)Nc1ccc(O)cc1 [Paracetamol (=3-Acetamidophenol)] | 76.7 |  | 79.1 |  | 101 |  | 10.3
CCc1cccc2c3c([nH]c12)C(CC)(CC(=O)[O-])OCC3 (centres undefined) [Etodolac] | 86.6 | 80.5 | 82.3 | 93.5 | 103 | 99.8 | 20.8

SMILES | absolute recovery ([1]; nanopure water) [%] | absolute recovery ([1]; surface water) [%] | absolute recovery ([1]; wastewater effluent) [%] | absolute recovery ([1]; wastewater influent) [%] | absolute recovery ([2]; wastewater effluent) [%] | absolute recovery ([2]; wastewater influent) [%] | LC retention time [3] [min]
CC(C)(C)C(O)C(Oc1ccc(Cl)cc1)n1cncn1 (centres undefined) [Triadimenol-A] | 98.4 | 83.6 | 85.5 | 94.1 | 87.1 | 97.4 | 20
CCC1OC(=O)C(C)C(OC2CC(C)(OC)C(O)C(C)O2)C(C)C(OC2OC(C)CC([N+](C)(C)[O-])C2O)C(C)(OC)CC(C)C(=O)C(C)C(O)C1(C)O (centres undefined) [Clarithromycin-N-Oxide] | 91.1 | 85.3 | 96.6 | 93.9 | 103 | 95.9 | 17.3
COc1ccc(C(=CC(=O)N2CCOCC2)c2ccc(Cl)cc2)cc1OC [Dimethomorph] | 98.4 | 81.4 | 81.4 | 91.4 | 116 | 95.7 | 19.5
C[Si](Cn1cncn1)(c1ccc(F)cc1)c1ccc(F)cc1 [Flusilazol] | 103 |  | 99.5 | 82.4 | 114 | 107 | 20.4
COC(=O)c1csc(C)c1S(=O)(=O)[N-]C(=O)n1nc(OC)n(C)c1=O [Thiencarbazone] | 104 | 93.9 | 92.6 | 87 | 110 | 106 | 16.5
CC(C)[NH2+]CC(O)COc1cccc2ccccc12 (centres undefined) [Propranolol] | 100 | 96.8 | 93.7 | 86.3 | 105 | 100 | 14.4
CON=C(C(=O)OC)c1ccccc1CON=C(C)c1cccc(C(F)(F)F)c1 [Trifloxystrobin] |  | 97.3 | 88.9 | 99.8 | 77.4 | 97.5 | 21.4
O=C([O-])C(c1ccccc1Cl)[NH+]1CCc2sccc2C1 (centres undefined) [Clopidogrel-Carboxylic-Acid] | 93.2 | 94 | 91.1 | 92.8 | 103 | 102 | 14.8
CC(C)[NH2+]CC(O)c1ccc(NS(C)(=O)=O)cc1 (centres undefined) [Sotalol] | 96.1 | 93 | 92.5 | 92 | 104 | 103 | 8.25
O=C1C=CC(=C2NC=CNC2=O)C=C1 [Amoxicillin-EP-Impurity-F] | 76.8 | 79.4 | 82.1 | 91.7 | 105 | 107 | 12.3
CC1(C)CCC(Cc2ccc(Cl)cc2)C1(O)Cn1cncn1 (centres undefined) [Metconazole] | 95.9 | 108 | 94.9 | 80.9 | 100 | 105 | 21.3
O=C(NCCc1ncc(C(F)(F)F)cc1Cl)c1ccccc1C(F)(F)F [Fluopyram] | 101 | 93.4 | 93 | 102 | 105 | 54.9 | 19.9
Cn1cc(C(=O)Nc2ccc(F)cc2-c2ccc(Cl)c(Cl)c2)c(C(F)F)n1 [Bixafen] | 95.4 | 101 | 102 | 76.1 | 109 | 108 | 20.5
C#CC[NH+](C)Cc1ccccc1 [N-Methyl-N-propargylbenzylamine] | 62.3 | 66.9 | 62.4 | 78.1 | 73.6 | 72.1 | 11.4
O=C(Nc1ccccc1-c1ccc(Cl)cc1)c1cccnc1Cl [Boscalid] | 102 | 97.2 | 95.2 | 104 | 88.4 | 105 | 19.4
CC(=O)N(CC(O)CN(C(C)=O)c1c(I)c(C(=O)NCC(O)CO)c(I)c(C(=O)NCC(O)CO)c1I)c1c(I)c(C(=O)NCC(O)CO)c(I)c(C(=O)NCC(O)CO)c1I (centres undefined) [Iodixanol] | 102 |  |  |  | 149 |  | 10.7
O=P1(N(CCCl)CCCl)NCCCO1 (centres undefined) [Cyclophosphamid] | 98.1 | 96.4 | 93.9 | 94.5 | 104 | 100 | 16.1
Cc1cc(=O)n(-c2ccccc2)n1C [Phenazon (=Antipyrin)] | 83.8 | 93.4 | 91.4 | 95.5 | 106 | 100 | 13.3
FC(F)(F)c1cccc(N2CC[NH2+]CC2)c1 [1-(3-Trifluoromethylphenyl)-piperazine] | 66 | 71.9 | 66.4 | 69.9 | 97.4 | 93 | 13.6
C=CCC1C=C(C)CC(C)CC(OC)C2OC(O)(C(=O)C(=O)N3CCCCC3C(=O)OC(C(C)=CC3CCC(O)C(OC)C3)C(C)C(O)CC1=O)C(C)CC2OC (centres undefined) [FK-506 (=Tacrolimus)] | 82.7 | 66.5 | 53.5 |  | 56.2 |  | 22.2
CC(C)(Oc1ccc(CCNC(=O)c2ccc(Cl)cc2)cc1)C(=O)[O-] [Bezafibrat] | 98 | 98.8 | 92.9 | 94 | 104 | 103 | 19.5
CC1COc2c(N3CCN(C)CC3)c(F)cc3c(=O)c(C(=O)[O-])cn1c23 (centres undefined) [Levofloxacin] | 88.7 | 108 | 93.3 | 114 | 103 | 135 | 11.2
Nc1ccc(S(=O)(=O)[N-]c2nccs2)cc1 [Sulfathiazol] | 92.4 | 91.4 | 83.6 | 93.6 | 99.3 | 90.4 | 10.4
COC(=O)N(OC)c1ccccc1COc1ccn(-c2ccc(Cl)cc2)n1 [Pyraclostrobin] | 101 | 98 | 91.5 | 99.3 | 87.5 | 90.7 | 21.1
CSC1=NC(C)(c2ccccc2)C(=O)N1Nc1ccccc1 (centres undefined) [Fenamidone] | 100 | 107 | 101 | 91.6 | 106 | 98.7 | 19.2
